Measured values from a melting point compilation (Tetko et al.).

| Structure (SMILES) | melting point |
| --- | --- |
| CCCCCCCCCCc1cc(-c2cc(-c3ccccc3)c3ccccc3n2)sc1-c1sc(-c2cc(-c3ccccc3)c3ccccc3n2)cc1CCCCCCCCCC | 21.9 °C |
| CCCCCCCCCCCCCCCC(=O)OCC(COP(=O)([O-])OCC[N+](C)(C)C)OC(=O)CCCCCCCCCCCCCCC (stereo not drawn) | 229 to 230 °C |
| N#CC=Cc1ccco1 | 38 °C |
| Cc1cncc([N+](=O)[O-])c1 | 96 °C |
| CCN1CCN(c2cc3c(cc2F)c(=O)c(C(=O)O)cn3C2CC2)CC1 | 220 °C |
| COC(=O)NNC(=O)OC | 129 to 131 °C |
| SC1=NN=C(S)NN1 | 191 to 193 °C |
| Cc1ccc(C(=O)c2ccccc2N)cc1 | 91 to 94 °C |
| C/C(CCc1oc2ccc(Cl)cc2c1-c1ccc(C)o1)=N/O | 114 to 115 °C |
| Cc1cc(C=O)nn1C | 56 to 57 °C |
| CC12CCC(=O)C(Cl)=C1CCC1C2CCC2(C)C(O)CCC12 (stereo not drawn) | 189 °C |
| Nc1ccc(Cl)cc1C(F)(F)F | 9 °C |
| ON(c1ccccc1)C(Br)C(Br)c1ccccc1 (stereo not drawn) | 125 °C |
| COC(=O)CCCCCCCCC(=O)OC | 38 °C |
| O=C(O)Cn1c(=O)sc2cccc(Cl)c21 | 193 °C |
| CCC1CCC(=O)O1 (stereo not drawn) | -18 °C |
| COc1cc(CC2c3cc(OC)c(OC)cc3CCN2C)c(Oc2cc3c(cc2OC)-c2c(OC)c(OC)cc4c2C(C3)N(C)CC4)cc1OC (stereo not drawn) | 160 °C |
| Brc1n[nH]c2nc3ccccc3nc12 | 273 to 276 °C |
| O=C(Cl)c1ccc(Oc2ccccn2)cc1 | 80 to 81 °C |
| O=C(O)CSc1ccnc2cc(Cl)ccc12 | 223 to 225 °C |
| CC(=O)C1(O)CCC2C3CC(C)C4=CC(=O)CCC4(C)C3CCC21C (stereo not drawn) | 222 °C |
| CCSc1sc(C(=O)OC)c2c1C(=O)CC(C)(C)C2 | 116 to 119 °C |

| Structure (SMILES) | melting point |
| --- | --- |
| c1ccc(C2(N3CCCCC3)CCCCC2)cc1 | 46.5 °C |
| O=C(O)CCCCc1ccc(O)cc1 | 118 °C |
| c1csc(-c2cc[nH]n2)c1 | 97 to 99 °C |
| C=C(C)C1CCC(C)=CC1c1c(O)cc(CCCCC)cc1O (stereo not drawn) | 67 °C |
| COc1ccc(CN2CCc3ccccc3C2)cc1O | 129 °C |
| CCC1(C2CCC(OC)CC2)C(=O)NC(=O)NC1=O (stereo not drawn) | 239 to 240 °C |
| Cc1nc(-c2ccc3c(c2)CCO3)sc1C(=O)Cl | 150 to 154 °C |
| ClCc1cc(Cl)cc2c1OCOC2 | 101 °C |
| c1ccc(-c2cc3cc4cc(-c5ccccc5)[nH]c4cc3[nH]2)cc1 | > 270 °C |
| CC12CCC(O)C=C1CCC1C2CCC2(C)C(c3ccc(=O)oc3)CCC12O (stereo not drawn) | 235 °C |
| Nc1ccc(S(=O)(=O)O)cc1 | 365 °C |
| Fc1c(F)c(Cl)c(F)c(F)c1S | 47 to 52 °C |
| O=C=Nc1cc(F)cc2c1OCOC2 | 85 to 86 °C |
| Cc1cccc2c1-c1nc3ccccc3nc1-2 | 134 to 136 °C |
| O=[N+]([O-])c1ccc(Br)c(Cl)c1 | 61 °C |
| Fc1ncccc1I | 45 to 46 °C |
| CCOC=C(C#N)C(=O)OCC | 49.5 °C |
| CCCC(C)(COC(N)=O)COC(=O)NC(C)C (stereo not drawn) | 92 °C |
| COC(=O)C1=C(C)NC(C)=C(C(=O)OC)C1c1ccco1 | 186 °C |
| Nc1cccc(C(F)(F)F)c1Cl | 27 °C |
| COC(=O)C1CC(c2ccccc2)c2ccccc21 (stereo not drawn) | 91 °C |
| O=C(CC(=O)C(F)(F)F)c1ccccc1 | 39 °C |

| Structure (SMILES) | melting point |
| --- | --- |
| COC(=O)[C@H]1OC(c2ccc(OC)c(OC)c2)([C@@H](C)Br)O[C@@H]1C(=O)OC | 97.3 °C |
| CN(C)c1ccc(N=Nc2ccc([N+](=O)[O-])cc2)cc1 | 236 °C |
| O=C(O)CCc1cc(Br)c(O)c(Br)c1 | 108 to 110 °C |
| O=C(O)c1ccc(F)c(F)c1F | 141 °C |
| CCOC(=O)CCc1ccc(O)cc1 | 40 to 42 °C |
| CCCCc1ccc(NC(=O)c2ccc(CC)cc2)cc1 | 117 °C |
| O=C(C(=S)Nc1ccc(I)cc1)c1ccccc1 | 139 °C |
| O=C(O)c1c(C(=O)O)c(C(=O)O)c(C(=O)O)c(C(=O)O)c1C(=O)O | 287 °C |
| CC1CCC(C(C)C)C(OC(=O)C(c2ccccc2)c2ccccc2)C1 (stereo not drawn) | 53 °C |
| COc1ccc(CCN2CCc3c([nH]c4ccccc34)C2=O)cc1OC | 206 to 207 °C |
| CCOC(=O)CCCOc1ccccc1NC(=O)c1ccc2c(c1)CC1(CCC(c3ccc(C(C)(C)C)cc3)CC1)C2 (stereo not drawn) | 112 °C |
| NS(=O)(=O)C=Cc1ccccc1 | 138 to 140 °C |
| CC(=O)OC1CC[C@H]2[C@@H]3CC[C@@H]4C(Br)C(=O)CC[C@]4(C)[C@H]3CC[C@]12C (stereo partly drawn) | 181 °C |
| Cc1c([N+](=O)[O-])cc(N)cc1[N+](=O)[O-] | 171 °C |
| NC(=S)Nc1ccccn1 | 148 to 150 °C |
| CC(C)(C)OC(=O)N[C@H]1CCC[C@H]1C(=O)O (relative stereo) | 90 to 94 °C |
| CC12CCC(C(CC(N)=O)C1=O)C2(C)C (stereo not drawn) | 101 °C |
| COC(=O)CCCCCCC(=O)O | 17 to 19 °C |
| N#Cc1ccc([N+](=O)[O-])cc1Cl | 83 to 84 °C |
| COc1ccc(Cl)cc1C(=O)O | 99 °C |
| COC(=O)c1ccc(NC(C)=O)c(NC(C)=O)c1 | 225 °C |
| CC(C=CC=C(C)C=CC1=C(C)CCCC1(C)C)=CC=CC=C(C)C=CC=C(C)C=CC1=C(C)C(=O)CCC1(C)C | 179 °C |

| Structure (SMILES) | melting point |
| --- | --- |
| O=C(O)C=Cc1ccc(F)cc1C(F)(F)F | 182 °C |
| CC(C)CCCCCCCOC(=O)CCCCC(=O)OCCCCCCCC(C)C | 27.4 °C |
| Cn1c(CO)cc2occc21 | 74 to 76 °C |
| CCCCCCCCCCCC=O | 44.5 °C |
| Brc1ccc(Oc2ccccc2)c(Br)c1 | < 20 °C |
| CCCCCC(C=O)=Cc1ccccc1 | 80 °C |
| CC(=O)Nc1ccccc1C#Cc1ccccc1 | 118 to 119 °C |
| NC(=S)c1ccccc1Cl | 68 to 70 °C |
| Cc1onc(-c2c(Cl)cccc2Cl)c1C(N)=S | 173 to 176 °C |
| N#Cc1cc(Br)cc(Br)c1N | 152 to 156 °C |
| CCOC(=O)C12C(c3cc(Br)ccc3OP1(=O)OCC)C1(C(=O)OCC)C2c2cc(Br)ccc2OP1(=O)OCC (stereo not drawn) | 272 to 274 °C |
| Cn1nccc1-c1cccc(C(=O)O)c1 | 138 to 140 °C |
| Nc1ccc(-c2ccccc2N)cc1 | 54.5 °C |
| O=c1c(Nc2ccccc2)c(Nc2ccccc2)c1=O | 270 °C |
| CCc1c(C)c[nH]c1C | 0 °C |
| NNC(=O)CCCO | 93 °C |
| C=C1C(=O)OC2CC(C)C3C=CC(=O)C3(C)C(O)C12 (stereo not drawn) | 168 °C |
| O=C(O)C1CN(C(c2ccccc2)c2ccccc2)C1 | 178 to 180 °C |
| O=[N+]([O-])c1cc(C(F)(F)F)ccc1N1CCCCC1 | 48 to 50 °C |
| CC(C)(C)OC(=O)NC(Cc1ccccc1)C(=O)NN (stereo not drawn) | 131 to 136 °C |
| CC1CCC(O)CC1=CC=C1CCCC2(C)C1CCC2C(C)C=CC(C)C(C)C (stereo not drawn) | 126 °C |
| ClC(Cl)=CBr | -88.5 °C |
